By EC50 is commonly meant the concentration giving half of the maximal effect. Lower therefore signals a more potent agent. The inhibition is the percentage by which the read-out fell short of the control.

Test [1] has as its system Wnt activity (Wnt-responsive human Sp5 promoter, TCF/LEF binding sites) in SW480 colon carcinoma cells. Briefly: Wnt activity screening assay: Sp5-Luc luciferase reporter gene in SW480 cells. Particulars: for EC50: 10-point dose-response from 10 μM, incubated overnight; for inhibition at 10 µM: given for EC50 of >10 μM, read-out: percent inhibition at 10 μM. It counts as cell-based. An outline of the steps:
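Luminescence read-out (BrightGlo) from stable Sp5-Luc SW480 cells, normalized to DMSO-only wells. Cells were treated overnight at 37° C in 1% FBS medium across a 1:3, 10-point series starting at 10 μM. EC50 from variable-slope four-parameter regression; percent inhibition at 10 μM given where EC50 >10 μM.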
In general terms: A reporter such as luciferase makes a cellular process visible.

In test [2] the test system is SW480 colon cancer cells. Briefly: Cell viability assay (CellTiter-Blue), four days. It counts as cell-based. Particulars: Homo sapiens, 96 h; for inhibition at 10 µM: read-out: percent inhibition at 10 μM (given for EC50 of >10 μM); for EC50: CellTiter-Blue cell viability. The procedure, abridged:
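SW480 cells (~2×10^3 per well) were exposed to compound for four days at 37 °C/5% CO2, using 8-point 1:3 dilutions from 10 μM to 0.0045 μM in duplicate. Viability was read by resazurin reduction (CellTiter-Blue, ~3 h, Ex 560/Em 590 nm). EC50 came from non-linear regression; above 10 μM, percent inhibition at 10 μM is given.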
In general terms: Resazurin is reduced to fluorescent resorufin, in cell work by metabolically active cells.

For the compound `Oc1cncc(-c2ccc3[nH]nc(-c4nc5cnccc5[nH]4)c3n2)c1` [Compound 661, 5-(3-(1H-Imidazo[4,5-c]pyridin-2-yl)-1H-pyrazolo[4,3-b]pyridin-5-yl) pyridin-3-ol], in test [1], the EC50 is greater than 10 µM and the inhibition at 10 µM is 10.7%. Also, in test [2], the inhibition at 10 µM amounted to 13.5% and the EC50 is greater than 10 µM.

As for `O=C(CC1CCNCC1)Nc1cncc(-c2ccc3[nH]nc(-c4nc5c(-c6ccsc6)nccc5[nH]4)c3n2)c1` [Compound 673, 2-(Piperidin-4-yl)-N-(5-(3-(4-(thiophen-3-yl)-1H-imidazo[4,5-c]pyridin-2-yl)-1H-pyrazolo[4,3-b]pyridin-5-yl)pyridin-3-yl)acetamide], in test [1], the 50% effective concentration (EC50) is greater than 10 µM and the inhibition at 10 µM came out at 22.6%. Further, in test [2], the inhibition at 10 µM was determined as 6.6% and the EC50 is greater than 10 µM.

With `Cc1ncc(-c2ccc3[nH]nc(-c4nc5c(-c6ccoc6)nccc5[nH]4)c3n2)n1C` [Compound 685, 5-(1,2-Dimethyl-1H-imidazol-5-yl)-3-(4-(furan-3-yl)-1H-imidazo[4,5-c]pyridin-2-yl)-1H-pyrazolo[4,3-b]pyridine], the EC50 in test [1] was 0.211 µM; in test [2] it was 0.624 µM.

For the compound `c1cc2[nH]c(-c3n[nH]c4ccc(-c5cncc(OCCN6CCCC6)c5)nc34)nc2c(-c2ccoc2)n1` [Compound 690, 3-(4-(Furan-3-yl)-1H-imidazo[4,5-c]pyridin-2-yl)-5-(5-(2-(pyrrolidin-1-yl)ethoxy)pyridin-3-yl)-1H-pyrazolo[4,3-b]pyridine], the EC50 was determined as 3.83 µM in test [1] and 4.3 µM in test [2].

For `COc1cncc(-c2ccc3[nH]nc(-c4nc5c(-c6ccoc6)nccc5[nH]4)c3n2)c1` [Compound 692, 3-(4-(Furan-3-yl)-1H-imidazo[4,5-c]pyridin-2-yl)-5-(5-methoxypyridin-3-yl)-1H-pyrazolo[4,3-b]pyridine], the EC50 in test [1] came out at 0.745 µM; in test [2] it was 1.57 µM.

As to `Cn1cc(-c2ccc3[nH]nc(-c4nc5c(-c6cccs6)nccc5[nH]4)c3n2)cn1` [Compound 700, 5-(1-Methyl-1H-pyrazol-4-yl)-3-(4-(thiophen-2-yl)-1H-imidazo[4,5-c]pyridin-2-yl)-1H-pyrazolo[4,3-b]pyridine], the EC50 in test [1] came out at 0.456 µM; in test [2], 0.775 µM.

Take `Cc1ccc(-c2nccc3[nH]c(-c4n[nH]c5ccc(C6=CCNCC6)nc45)nc23)s1` [Compound 730, 3-(4-(5-Methylthiophen-2-yl)-1H-imidazo[4,5-c]pyridin-2-yl)-5-(1,2,3,6-tetrahydropyridin-4-yl)-1H-pyrazolo[4,3-b]pyridine]: the results for the EC50 in test [1] and in test [2] were greater than 10 µM and 5.26 µM, respectively. For the same compound, the inhibition at 10 µM in test [1] worked out at 43.4%.

Turning to `Cc1ccc(-c2nccc3[nH]c(-c4n[nH]c5ccc(-c6cncc(OC7CCCCC7)c6)nc45)nc23)s1` [Compound 735, 5-(5-(Cyclohexyloxy)pyridin-3-yl)-3-(4-(5-methylthiophen-2-yl)-1H-imidazo[4,5-c]pyridin-2-yl)-1H-pyrazolo[4,3-b]pyridine], the EC50 in test [1] stood at 1.04 µM. For the same compound, in test [2], the inhibition at 10 µM was determined as 0% and the half-maximal effective concentration (EC50) is greater than 10 µM.

Turning to `Cn1cc(-c2ccc3[nH]nc(-c4nc5c(-c6cc(F)cc(CNS(C)(=O)=O)c6)nccc5[nH]4)c3n2)cn1` [Compound 764, N-(3-Fluoro-5-(2-(5-(1-methyl-1H-pyrazol-4-yl)-1H-pyrazolo [4,3-b]pyridin-3-yl)-1H-imidazo[4,5-c]pyridin-4-yl)benzyl)methanesulfonamide], the EC50 in test [1] was 0.837 µM; in test [2], 5.88 µM.

`CS(=O)(=O)NCc1cc(F)cc(-c2nccc3[nH]c(-c4n[nH]c5ccc(-c6cncc(NC(=O)CC7CCNCC7)c6)nc45)nc23)c1` [Compound 769, N-(5-(3-(4-(3-Fluoro-5-(methylsulfonamidomethyl)phenyl)-1H-imidazo[4,5-c]pyridin-2-yl)-1H-pyrazolo[4,3-b]pyridin-5-yl)pyridin-3-yl)-2-(piperidin-4-yl)acetamide]: in test [1], the EC50 was greater than 10 µM and the inhibition at 10 µM stood at 9.8%. Also, in test [2], the inhibition at 10 µM stood at 7.7% and the EC50 is greater than 10 µM.

In test [1], `CN(C)CCNc1cc(F)cc(-c2nccc3[nH]c(-c4n[nH]c5ccc(-c6cncc(OCCN7CCCC7)c6)nc45)nc23)c1` [Compound 786, N^1-(3-Fluoro-5-(2-(5-(5-(2-(pyrrolidin-1-yl)ethoxy)pyridin-3-yl)-1H-pyrazolo[4,3-b]pyridin-3-yl)-1H-imidazo[4,5-c]pyridin-4-yl)-5phenyl)-N^2,N^2-dimethylethane-1,2-diamine] returned an EC50 of 4.41 µM. For the same compound, in test [2], the inhibition at 10 µM is 15.9% and the EC50 was greater than 10 µM.

Consider `CN(C)CCNc1cc(F)cc(-c2nccc3[nH]c(-c4n[nH]c5ccc(-c6cnccn6)nc45)nc23)c1` [Compound 792, N^1-(3-Fluoro-5-(2-(5-(pyrazin-2-yl)-1H-pyrazolo[4,3-b]pyridin-3-yl)-1H-imidazo[4,5-c]pyridin-4-yl)phenyl)-N^2,N^2-dimethylethane-1,2-diamine], for which, in test [1], the EC50 was greater than 10 µM and the inhibition at 10 µM came out at 36.2%. In addition, in test [2], the inhibition at 10 µM came out at 22.1% and the EC50 is greater than 10 µM.

Take `COc1cccc(-c2nccc3[nH]c(-c4n[nH]c5ccc(-c6cncc(NC(=O)CC(C)(C)C)c6)nc45)nc23)c1` [Compound 1006, N-(5-(3-(4-(3-methoxyphenyl)-1H-imidazo[4,5-c]pyridin-2-yl)-1H-pyrazolo [4,3-b]pyridin-5-yl)pyridin-3-yl)-3,3-dimethylbutanamide]: in test [1], the EC50 was greater than 10 µM and the inhibition at 10 µM was determined as 16.6%. Further, in test [2], the inhibition at 10 µM was 0% and the EC50 was greater than 10 µM.

With `COc1cccc(-c2nccc3[nH]c(-c4n[nH]c5ccc(-c6cn[nH]c6)nc45)nc23)c1` [Compound 1020, 3-(4-(3-Methoxyphenyl)-1H-imidazo[4,5-c]pyridin-2-yl)-5-(1H-pyrazol-4-yl)-1H-pyrazolo[4,3-b]pyridine], in test [1], the EC50 is greater than 10 µM and the inhibition at 10 µM came out at 5.7%. Further, in test [2], the inhibition at 10 µM amounted to 6.4% and the EC50 was greater than 10 µM.

Regarding `COc1cccc(-c2nccc3[nH]c(-c4n[nH]c5ccc(-c6cncc(OC7CCNCC7)c6)nc45)nc23)c1` [Compound 1025, 3-(4-(3-Methoxyphenyl)-1H-imidazo[4,5-c]pyridin-2-yl)-5-(5-(piperidin-4-yloxy)pyridin-3-yl)-1H-pyrazolo[4,3-b]pyridine], in test [1], the EC50 was greater than 10 µM and the inhibition at 10 µM is 15.1%. In addition, in test [2], the inhibition at 10 µM is 12.7% and the EC50 is greater than 10 µM.

As for `COc1cccc(-c2nccc3[nH]c(-c4n[nH]c5ccc(-c6cncc(O)c6)nc45)nc23)c1` [Compound 1030, 5-(3-(4-(3-Methoxyphenyl)-1H-imidazo[4,5-c]pyridin-2-yl)-1H-pyrazolo [4,3-b]pyridin-5-yl)pyridin-3-ol], in test [1], the concentration for a half-maximal effect (EC50) is greater than 10 µM and the inhibition at 10 µM was 14.1%. Moreover, in test [2], the inhibition at 10 µM amounted to 6% and the EC50 was greater than 10 µM.

In test [1], `NC1CN(c2cncc(-c3ccc4[nH]nc(-c5nc6c(-c7ccc(Cl)s7)nccc6[nH]5)c4n3)n2)C1` [Compound 1068, 1-(6-(3-(4-(5-Chlorothiophen-2-yl)-1H-imidazo[4,5-c]pyridin-2-yl)-1H-pyrazolo[4,3-b]pyridin-5-yl)pyrazin-2-yl)azetidin-3-amine] showed a half-maximal effective concentration (EC50) of 4.2 µM. In test [2], the inhibition at 10 µM came to 48.2% and the EC50 is greater than 10 µM.

The values above are taken from US10195185B2, “3-(1H-imidazo[4,5-C]pyridin-2-yl)-1H-pyrazolo[4,3-B]pyridines and therapeutic uses thereof” (Samumed, LLC, priority 2015, dated 2019).
